Key:
TA-98 = details: TA-98, Without S-9 mix
Description: (§1) Appendix Table S3. Bacterial reverse mutation assay with KY-02327
(§2) a Number of revertant colonies of treated plate/Number of revertant colonies of
(§3) vehicle control plate (Maron & Ames, 1983).
(§4) b Negative control. Vehicle: DMSO

[1] = molecular target: CYP C29 (so in the source); probably CYP2C9) (Homo sapiens, UniProt P11712); test: Cytochrome P450 inhibition assay, C29
Description: Appendix Table S4. Cytochrome P450 (CYP) inhibition assay with 10 µ M KY-

[2] = tested on: ovariectomized (OVX) mice; test: OVX-induced osteoporosis mouse model; assay type: in vivo; details: KY‐02327 20 mpk oral, PTH 0.06 mpk subcutaneous
Description: Figure 6 Effects of KY‐02327 on OVX‐induced osteoporosis model mice • A–H Vehicle or 20 mg of KY‐02327 per kg of animal body weight (mpk) was orally administered or 0.06 mpk of the N‐terminal fragment of PTH (amino acids 1‐34) was subcutaneously injected into the Sham‐operated (Sham) or ovariectomized (OVX) mice on 5 sequential days per week for 4 weeks (n = 4). After calcein injection, the prepared femoral sections of the OVX mice were examined under fluorescence microscope to visualize integrated calcein (A, green, arrows). Nuclei were counterstained with DAPI (A, blue). Scale bars, 100 μm. Osteoblast numbers (B) and calcein double‐labeled surfaces (C) were measured in the femoral sections. The mouse femurs were analyzed using micro‐CT, and BMD (D) and BV/TV (E) were calculated from the micro‐CT data. The three‐dimensional images of femoral trabecular bone were reconstructed (F), and trabecular number (G) and trabecular separation (H) were calculated. Data Information: The data are the mean ± s.d. (error bars). Significance was assessed using Kruskal–Wallis test.
This animal study was approved by the Institutional Review Board of Severance Hospital, Yonsei University College of Medicine. The mice were housed in filter‐topped shoebox cages with a computerized environmental control system (MJ LTD, Seoul, Korea). The care and treatment of experimental animals were performed in accordance with institutional guidelines. The room temperature was maintained at 26.5°C with a relative humidity of approximately 40–70%. The mice were given a standard maintenance diet from Dae Han Bio Link (Daejeon, Korea). For OVX mouse experiments, the surgeries were performed with 8‐week‐old female BL6 mice under anesthesia with avertin (2,2,2‐tribromoethanol; Worthington Biochemical, Freehold, NJ) as described previously (Zahoor et al, 2014). After removing the hair, dorsal incisions were made into the dermal layers above both sides of the ovaries using dissection scissors. The connection between the fallopian tube and the uterine horn was cut, and the ovary was removed. The incision was then sutured with 3 single catgut stitches. Sham mice were used as controls. After 4 weeks, the OVX group was divided into three groups for oral administration of vehicle (saline containing 10% Tween‐60) or 20 mg of KY‐02327 per kg of animal body weight (mpk) of KY‐02327, or for subcutaneous injection of 0.06 mpk of N‐terminal fragment of PTH (amino acids 1–34), which were administered for 5 sequential days per week for 4 weeks. The animals were sacrificed, and the organs were harvested for analysis. For the calcein double‐labeling experiment (Pall et al, 1987), calcein (10 mpk in 2% sodium hydrocarbonate, pH 7.4) was injected twice, on the last day of the 2nd and 3rd week. All the mice were randomly assigned to each groups, and the investigators were blinded to the group allocation during the treatments and experiments.
The mouse femurs were scanned using a micro‐CT system (Skyscan 1072; Skyscan, Aartselaar, Belgium). The scanned image data were reconstructed to create 3D images and analyzed using the CT‐Analyzing Program (Skyscan). For femoral trabecular bone analysis, the femurs were scanned with a voxel size of 10 μm, beginning at the end of the growth plate and extending proximally along the diaphysis, and 80 continuous slices (beginning at 0.1 mm from the most proximal aspect of the growth plate in which both condyles were no longer visible) were selected for analysis.
The femurs of OVX mice and the calvariae of 4‐day‐old mice were fixed in 4% paraformaldehyde in PBS. The bones were then decalcified in 10 mM EDTA and embedded in paraffin. Five‐micrometer tissue sections were deparaffinized in 100% xylene followed by re‐hydration with sequential 100% to 50% ethanol washes. The sections were stained with hematoxylin and eosin (H&E), and light micrographs were captured using a SMZ645 Nikon microscope (Nikon, Tokyo, Japan). […]

TA-100 = details: TA-100, Without S-9 mix
Description: as §1, §2, §3, §4

CYP C29 (so in the source); probably CYP2C9), sequence (P11712 whole entry): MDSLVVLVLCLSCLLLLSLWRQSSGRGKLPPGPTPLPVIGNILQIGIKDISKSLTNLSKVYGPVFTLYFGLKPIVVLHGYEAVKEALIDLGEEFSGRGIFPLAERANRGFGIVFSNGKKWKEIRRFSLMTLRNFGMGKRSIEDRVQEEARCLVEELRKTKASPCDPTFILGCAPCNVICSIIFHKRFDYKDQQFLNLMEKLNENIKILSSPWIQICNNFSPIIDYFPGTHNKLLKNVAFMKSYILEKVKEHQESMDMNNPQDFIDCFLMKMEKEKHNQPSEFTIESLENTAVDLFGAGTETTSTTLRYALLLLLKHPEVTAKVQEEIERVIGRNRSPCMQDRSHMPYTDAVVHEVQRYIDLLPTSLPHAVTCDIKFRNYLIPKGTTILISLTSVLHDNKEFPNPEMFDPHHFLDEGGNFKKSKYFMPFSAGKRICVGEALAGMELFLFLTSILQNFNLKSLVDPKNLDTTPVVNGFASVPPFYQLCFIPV

With `O=[N+]([O-])c1ccc2c(c1)Cc1ccccc1-2` [2-NF, 2-nitrofluorene, reference compound] the “Factor (revertant colonies treated plate / vehicle control plate)” value (TA-98) was 9.4 and the “Revertant colonies/plate (Mean)” value (TA-98; dose (g/plate): KY-02327 1000, 2-NF 1) was 178 ± 16 colonies/plate.

Compound `Nc1ccc(S(=O)(=O)Nc2ccnn2-c2ccccc2)cc1` [Sulfaphenazole, reference compound] has an inhibition at 10 µM [1] of 80.5%.

In the case of “PTH: N‐terminal fragment of PTH (amino acids 1‐34) [reference compound]”, the “destroyed trabecular bones (3D micro-CT images)” value ([2]; 4 weeks) is reported as “rescued”, the “mineral contents of the bone (BMD), femur, micro‐CT” value ([2]; 4 weeks) is reported as “significantly increased” and the trabecular bone number ([2]; 4 weeks) is reported as “increase”. The trabecular separation ([2]; 4 weeks) was “decrease”, the “volume of bone (BV/TV)” value ([2]; 4 weeks, vs vehicle) was “increased” and the “calcein double‐labeled surface” value ([2]; 5 days per week for 4 weeks) was “increased”. The “new bone formation (calcein-labeled) in femur” value ([2]; 5 days per week for 4 weeks) was “recovered” and the number of osteoblasts ([2]; 5 days per week for 4 weeks) was “increased”.

`[N-]=[N+]=[N-].[Na+]` [S.A, Sodium azide, reference compound] was tested, and the “Factor (revertant colonies treated plate / vehicle control plate)” value (TA-100) was 5.6 and the “Revertant colonies/plate (Mean)” value (TA-100; dose (g/plate): KY-02327 1000, S.A 1) was 689 ± 20 colonies/plate.
